In patent US20020169153A1, “Substituted aromatic compounds for treatment of antibiotic resistant infections” (priority 1998, published 2002):

System: Staphylococcus aureus methicillin-resistant wild type T67738
Experiment: Susceptibility test, microtiter broth dilution (MIC), resistant S. aureus
Format: cell-based
Details: in culture
Procedure: The strains were streaked on blood agar plates (trypticase soy broth containing 5% sheep cells). A single colony was isolated and grown in Mueller-Hinton Broth (MHB) as recommended by the national Committee for Clinical Laboratory Standards for rapidly growing bacteria. Candida species and related yeasts were isolated in a similar manner on brain-heart infusion agar (BHI).
The antibiotic susceptibility profile of each strain was determined using standard microtiter dilution plates obtained from the Clinical Microbiology Laboratory at Ohio State University Hospitals. The Inocula were prepared by suspending a 4 hour log phase growth in MHB visually equal in turbidity of an 0.5 McFarland standard. Inocula were further diluted and added to microdilution trays to achieve a final density of approximately 1×10^5 CFU/ml. The trays were incubated for 16 to 20 hours at 35° C. The highest dilution at which wells remained clear was considered to be the minimum inhibitory concentration (MIC).
The MIC and minimum bacterial concentration (MBC) of the strains to the active agents were determined by two-fold dilutions in Mueller-Hinton broth. […]

In the case of `OC(c1c2cccc(Cl)c2cc2c(Cl)cccc12)C1CCCCN1` (stereo not drawn) [WR 218394, α-(2-PIPERIDYL)-4,5-DICHLORO-9-ANTHRACENEMETHANOL], the “Effective Concentration S. Aureous (Resist).” value is reported as 3.1 µg/mL.
